The results in this text go back to patent US11026945B2, “Protein kinase RNA-like endoplasmic reticulum kinase (PERK) inhibitors for prevention and/or treatment of lung injury and/or inflammation” (THE TRUSTEES OF THE UNIVERSITY OF PENNSYLVANIA, priority 2016, dated 2021).

For data set [1], the system named is cleaved caspase 3 (Casp3) in AEC-I monolayers. It is filed as cell-based, rat.
A further data set has as its system AEC-I monolayers. The data set is described as follows: Monolayer permeability, FITC-labeled streptavidin binding to biotin. It is filed as cell-based, rat. From the text: To obtain monolayer rat type-II alveolar epithelial cells (AEC-II), cells were isolated from Sprague-Dawley rats (250-300 g, N=30 purchased from Charles River Laboratories, Wilmington, Mass.) described by Tschumperlin D J, Margulies SS. Equibiaxial deformation-induced injury of alveolar epithelial cells in vitro. Am J Physiol. 1998; 275(6 Pt 1):L1173-83. Epub 1998/12/09 (PubMed PMID: 9843855), with modifications. Briefly, animals were killed and the lungs were harvested. The lung tissue was digested with elastase at 37° C. and distal airways were isolated. Following, cells were placed on rat IgG coated containing no serum for 90 minutes to eliminate contaminating leukocytes and parenchymal cells. This isolation method yielded approximately 95% pure alveolar epithelial cell population. 1.3 million cells were plated on 1 cm diameter fibronectin-coated custom made silastic membranes. In permeability studies, biotin were mixed with fibronectin and membranes were pretreated with oxygen plasma coating to ensure homogenous distribution of the fibronectin. Cells were cultured with 10% fetal bovine serum (FBS)-containing Minimal Essential Medium (MEM) containing low dose antibiotics for 3 days. 32 to 40 monolayers were per rat. On the 3rd day, matured monolayers were randomized to be exposed to one of the treatments for 24 hours (N=3 monolayers/treatment): • A. RNAiMax transfection reagent treatment using serum free media (Opti-MEM, Thermo Fisher Scientific, Waltham, Mass.). This is a negative control for siRNA experiments where serum free media is used for improved transfection efficiency; • B. non-targeting siRNA treatment ([…], Dharmacon) serves a negative control for transfection; • C. […]
The dose of siRNA and PI treatment was selected based on dose-response curves above (FIG. 2A-FIG. 2E). […] All membranes were treated with FITC-labeled streptavidin (Thermo Fisher Scientific) at the end of the experiment and light emission was detected at 488 nm with fluorescent microscopy (Nikon TE300, Melville, N.Y.). […]

For the molecule `O=C(/C=C/c1ccccc1)NC(NC(=S)Nc1cccc2cccnc12)C(Cl)(Cl)Cl` (stereo not shown) [salubrinal], the Casp3 levels entry in data set [1] (salubrinal, unstretched and stretched monolayers) is recorded as “significant increase”. Besides, the monolayer permeability entry in the data set with AEC-I monolayers (10 uM salubrinal 2 hrs pretreatment) is “increased permeability”.

Turning to tunicamycin, the “cell death measured with cleaved caspase 3 (Casp3)” value in data set [1] (tunicamycin 1 μg/ml 24 hrs) is listed as “not related to increased cell death”. In addition, the monolayer permeability result with AEC-I monolayers (1 ug/ml tunicamycin 24 hrs treatment, vs DMSO vehicle control) was “increased permeability”.
